We go through 6 compounds from paper PMC11504387, “Synthesis and Biological Activity Assessment of 2-Styrylbenzothiazoles as Potential Multifunctional Therapeutic Agents” (Antioxidants, 2024).

One data set relates to primary human monocytes. In words: Lipid mediator (LM) formation in primary human monocytes. To be noted: 10 µM; A23187 2.5 µM, 30 min. The format is cell-based. The text has this: Monocytes and polymorphonuclear leukocytes (PMNL) were freshly isolated from human blood. Human blood and leukocyte concentrates were provided by the Institute for Transfusion Medicine of the University Hospital Jena (Thuringia, Germany). The protocols for experiments with human blood and blood cells were approved by the ethical commission of the Friedrich Schiller University of Jena. Following blood density centrifugation and separation of cell populations, peripheral blood mononuclear cells (PBMC) were left to adhere for 1 h to cell culture flasks (monocyte-enriched PBMC). Non-adherent cells were washed off from the adherent monocytes, before pre-incubating monocytes (5 × 10^6 cells/mL) with the test compounds for 10 min at 37 °C. LM formation was elicited with A23187 (2.5 µM) and CaCl2 (1 mM) over 30 min. The reaction was stopped with 1 mL of ice-cold methanol containing 10 µL of deuterium-labelled internal LM standards (200 nM d8-5S-HETE, d4-LTB4, d5-LXA4, d5-RvD2, d4-PGE2 and 10 µM d8-AA). LMs were extracted using Sep-Pak C18 35 cc Vac Cartridges (Waters, Milford, MA, USA) and analysed by UPLC-MS/MS as described by Pein et al..
The ability to modulate LM formation was screened in primary human monocytes expressing the enzymes required for PGE2, LTB4, and 12-HETE production (Figure 2A). Cells were pre-treated with the test compounds BZTst1–6 (10 µM) or the reference COX inhibitor diclofenac (1 µM) for 10 min prior to stimulation with the calcium ionophore A23187 (2.5 µM) for 30 min.

The nature of data set [1]: Ferric reducing antioxidant power (FRAP) test. The format is biochemical. To be noted: Trolox equivalents; mean ± SD. How it is done: The FRAP test, based on a colorimetric reaction, can assess the ability of a sample to reduce ferric ions to ferrous ions when complexed with 2,4,6-trispiridyl-s-triazine (TPTZ). The FRAP solution consisted of 0.1 M acetate buffer (pH 3.6), 10 mmol/L of TPTZ in 40 mM HCl and a 20 mM solution of FeCl3, in a 10:1:1 ratio. A 1.9 mL volume of the FRAP solution was incubated with 0.1 mL of the sample solution at 37 °C for 10 min. The absorbance was then read with a UV-Vis spectrophotometer at a wavelength of 593 nm, which corresponds to the maximum absorbance peak of the Fe^2+-TPTZ complex. Trolox® was used as a standard, and ferulic acid was used as positive control, and the results are expressed as µmol TE/g.

Another data set addresses T1, Human recombinant 5-LO (Homo sapiens, UniProt P09917).
T1 construct: made in house
T1 sequence (P09917 1-674): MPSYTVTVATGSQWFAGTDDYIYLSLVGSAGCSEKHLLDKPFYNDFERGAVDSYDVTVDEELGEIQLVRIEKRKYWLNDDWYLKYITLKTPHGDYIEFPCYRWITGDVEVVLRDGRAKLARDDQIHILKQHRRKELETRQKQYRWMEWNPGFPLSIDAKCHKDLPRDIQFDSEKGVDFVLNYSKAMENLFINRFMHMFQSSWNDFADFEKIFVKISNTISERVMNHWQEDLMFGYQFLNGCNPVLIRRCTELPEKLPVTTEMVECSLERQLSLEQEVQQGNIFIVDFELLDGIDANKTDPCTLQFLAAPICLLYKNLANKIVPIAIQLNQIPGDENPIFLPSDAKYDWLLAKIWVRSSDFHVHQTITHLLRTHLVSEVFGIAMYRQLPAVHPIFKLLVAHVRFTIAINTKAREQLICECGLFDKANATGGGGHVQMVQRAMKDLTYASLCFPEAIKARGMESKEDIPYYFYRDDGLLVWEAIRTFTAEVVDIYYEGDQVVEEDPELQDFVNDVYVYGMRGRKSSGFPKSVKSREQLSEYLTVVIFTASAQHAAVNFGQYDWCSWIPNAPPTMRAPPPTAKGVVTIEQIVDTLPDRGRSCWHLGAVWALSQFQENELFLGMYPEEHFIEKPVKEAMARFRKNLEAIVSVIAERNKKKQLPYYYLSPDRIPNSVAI
In words: 5-Lipoxygenase inhibition in a cell-free assay. Type of data set: biochemical. The conditions noted are these: for remaining activity at 10 µM: % relative to vehicle (DMSO), read-out: 5-LO Residual Activity (Cell-Free, 10 µM); for IC50: isolated enzyme. How it is done:
Human recombinant 5-LO was expressed and isolated as described before, and immediately used for activity assays after isolation. The 5-LO (0.5 µg, in 1 mL PBS pH 7.4 containing 1 mM EDTA) was pre-incubated with the test compounds for 10 min at 4 °C and pre-warmed for 30 s at 37 °C. 5-LO product formation was initiated by sequential addition of 1 mM CaCl2 and 20 μM arachidonic acid. After 10 min at 37 °C, the reaction was terminated by addition of 1 mL ice-cold methanol containing 200 ng PGB1 as internal standard. Formed 5-LO products (trans-LTB4, epi-trans-LTB4, and 5-HETE) were extracted using Sep-Pak C18 35 cc Vac Cartridges and analysed by UPLC-MS/MS as previously described.

The nature of another data set: ORAC assay. Type of data set: biochemical. The conditions noted are these: Trolox equivalents; mean ± SD. As for the experimental part: The ORAC assay was performed based on the previously modified Hong procedure. The sodium salt of fluorescein (85 nM) was used as a target for free radical attack with 2,2′-azobis(2-amidinopropane) dichloride (AAPH) as a peroxyl radical generator in the final assay mixture (total volume of 0.2 mL). The test involves a calibration curve of Trolox (standard control) with different concentrations (40 to 240 μM). The compounds tested were first dissolved in DMSO:MeOH and then diluted in phosphate buffer solution pH 7.4. Fluorescence measurements were performed at 37 °C and recorded at 5-min intervals up to 30 min after the addition of AAPH. ORAC values were calculated as the difference in areas under the fluorescein quenching curves between the blank and the sample and were expressed as µmol Trolox equivalents (TE) per gram of dried sample.

As usually defined, the IC50 is the point on the concentration scale where inhibition reaches its midpoint. By melting point is commonly meant the temperature of the solid-liquid transition.

Structures are written as SMILES.

Take `C(=C\c1nc2ccccc2s1)/c1ccccc1` [BZTst1, (E)-2-styrylbenzo[d]thiazole]: in the data set with primary human monocytes, the 12-HETE formation entry is listed as “weak but significant inhibition”. The FRAP in data set [1] was 331.15 ± 6.29 µmolTE/g. Further, at Human recombinant 5-LO, the remaining activity at 10 µM is 72 ± 20.4%. Besides, in “ORAC assay”, the ORAC entry is “<LOQ ^b”.
Regarding `Oc1ccc(/C=C/c2nc3ccccc3s2)cc1` [BZTst2, (E)-4-(2-(benzo[d]thiazol-2-yl)vinyl)phenol], in data set [1], the FRAP was determined as 1122.44 ± 25.14 µmolTE/g. Also, on Human recombinant 5-LO, the remaining activity at 10 µM stood at 47.3 ± 20.2% and the IC50 is 9260 nM. The ORAC in “ORAC assay” is 11,614.64 ± 1184.06 µmolTE/g.
As for `COc1ccc(/C=C/c2nc3ccccc3s2)cc1` [BZTst3, (E)-2-(4-methoxystyryl)benzo[d]thiazole], the melting point was in the range of 144 to 148 °C. For the same compound, in data set [1], the FRAP was 178.71 ± 8.17 µmolTE/g. Moreover, the remaining activity at 10 µM at Human recombinant 5-LO stood at 46.7 ± 28.5%. Besides, the ORAC in the data set “ORAC assay” came to 1077.84 ± 98.52 µmolTE/g.
`Oc1ccc(/C=C/c2nc3ccccc3s2)cc1O` [BZTst4, (E)-4-(2-(benzo[d]thiazol-2-yl)vinyl)benzene-1,2-diol]: in the data set with primary human monocytes, the 12-HETE formation entry was “highly significant inhibition”. Besides, in data set [1], the FRAP came out at 5673.33 ± 86.42 µmolTE/g. For the same compound, at Human recombinant 5-LO, the remaining activity at 10 µM came to 6.85 ± 3.72% and the IC50 was 50 nM. In addition, the ORAC result in “ORAC assay” is reported as “<LOQ ^b”.
With `COc1ccc(/C=C/c2nc3ccccc3s2)cc1O` [BZTst5, (E)-5-(2-(benzo[d]thiazol-2-yl)vinyl)-2-methoxyphenol], the FRAP in data set [1] is on record as 788.09 ± 14.46 µmolTE/g. Besides, the remaining activity at 10 µM on Human recombinant 5-LO came out at 34.8 ± 18.4%. Besides, the ORAC result in “ORAC assay” is reported as “<LOQ ^b”.
Regarding `COc1cc(/C=C/c2nc3ccccc3s2)ccc1O` [BZTst6, (E)-4-(2-(benzo[d]thiazol-2-yl)vinyl)-2-methoxyphenol], the FRAP in data set [1] came to 3262.22 ± 7.86 µmolTE/g. Further, on Human recombinant 5-LO, the remaining activity at 10 µM was determined as 6.84 ± 3.38% and the IC50 came out at 330 nM. In “ORAC assay”, the ORAC is 19,027.54 ± 46.67 µmolTE/g.
